From doi:10.1101/2020.06.11.145995v1 (biorxiv, 2020)
Like-named read-outs stand apart in the source and are kept apart here.

How the values were obtained:
Test in all cases: biochemical
[1] = molecular target: JAK3(JH1domain-catalytic) (Homo sapiens, UniProt P52333)
[2] = molecular target: STK33 (Homo sapiens, UniProt Q9BYT3)
[3] = molecular target: WEE2 (Homo sapiens, UniProt P0C1S8)
[4] = molecular target: ABL1(Y253F)-phosphorylated (Homo sapiens, UniProt P00519, Y253F)
[5] = molecular target: DYRK2 (Homo sapiens, UniProt Q92630)
Sequence of DYRK2 (Q92630 whole entry): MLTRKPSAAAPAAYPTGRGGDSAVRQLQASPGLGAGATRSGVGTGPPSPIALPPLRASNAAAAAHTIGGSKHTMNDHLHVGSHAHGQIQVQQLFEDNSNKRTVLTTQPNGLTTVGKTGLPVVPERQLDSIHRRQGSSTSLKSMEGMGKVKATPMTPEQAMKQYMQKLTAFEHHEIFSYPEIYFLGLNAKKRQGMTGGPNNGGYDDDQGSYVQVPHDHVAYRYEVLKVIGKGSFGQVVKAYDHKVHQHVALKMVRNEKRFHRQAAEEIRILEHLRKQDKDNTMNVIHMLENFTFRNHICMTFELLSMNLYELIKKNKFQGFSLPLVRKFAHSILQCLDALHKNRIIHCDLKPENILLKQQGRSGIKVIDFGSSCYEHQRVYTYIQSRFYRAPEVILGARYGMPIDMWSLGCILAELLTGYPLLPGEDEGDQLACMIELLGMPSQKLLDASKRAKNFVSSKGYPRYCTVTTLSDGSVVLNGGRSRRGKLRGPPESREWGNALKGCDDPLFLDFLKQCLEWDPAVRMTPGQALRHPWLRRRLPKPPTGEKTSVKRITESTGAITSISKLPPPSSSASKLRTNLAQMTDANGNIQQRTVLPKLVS

[6] = molecular target: CSK (Homo sapiens, UniProt P41240)
[7] = molecular target: MKNK2 (Homo sapiens, UniProt Q9HBH9)
[8] = molecular target: EGFR(L858R) (Homo sapiens, UniProt P00533, L858R)
[9] = molecular target: IRAK1 (Homo sapiens, UniProt P51617)
Sequence of IRAK1 (P51617 whole entry): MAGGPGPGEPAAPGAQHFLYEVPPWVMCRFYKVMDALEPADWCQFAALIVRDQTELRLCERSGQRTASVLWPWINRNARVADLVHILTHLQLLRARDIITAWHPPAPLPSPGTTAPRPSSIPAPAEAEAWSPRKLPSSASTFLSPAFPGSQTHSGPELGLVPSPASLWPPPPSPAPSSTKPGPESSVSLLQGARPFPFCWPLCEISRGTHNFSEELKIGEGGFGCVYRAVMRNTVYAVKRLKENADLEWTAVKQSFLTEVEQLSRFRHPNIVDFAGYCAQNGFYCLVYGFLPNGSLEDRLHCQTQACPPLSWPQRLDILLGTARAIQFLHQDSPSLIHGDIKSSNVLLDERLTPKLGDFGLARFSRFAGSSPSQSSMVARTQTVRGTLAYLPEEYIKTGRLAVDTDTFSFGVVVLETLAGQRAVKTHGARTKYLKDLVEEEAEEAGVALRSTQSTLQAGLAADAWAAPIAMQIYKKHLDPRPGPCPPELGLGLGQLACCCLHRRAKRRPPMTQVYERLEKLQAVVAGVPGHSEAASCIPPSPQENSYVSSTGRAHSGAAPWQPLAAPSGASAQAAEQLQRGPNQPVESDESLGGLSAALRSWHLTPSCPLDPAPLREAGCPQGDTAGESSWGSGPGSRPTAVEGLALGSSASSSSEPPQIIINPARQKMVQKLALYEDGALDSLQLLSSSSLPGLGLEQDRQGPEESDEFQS

[10] = molecular target: ERN1 (Homo sapiens, UniProt O75460)
[11] = molecular target: FGFR3(G697C) (Homo sapiens, UniProt P22607, G697C)
[12] = molecular target: FLT3(D835H) (Homo sapiens, UniProt P36888, D835H)
[13] = molecular target: CDK8 (Homo sapiens, UniProt P49336)
Sequence of CDK8 (P49336 whole entry): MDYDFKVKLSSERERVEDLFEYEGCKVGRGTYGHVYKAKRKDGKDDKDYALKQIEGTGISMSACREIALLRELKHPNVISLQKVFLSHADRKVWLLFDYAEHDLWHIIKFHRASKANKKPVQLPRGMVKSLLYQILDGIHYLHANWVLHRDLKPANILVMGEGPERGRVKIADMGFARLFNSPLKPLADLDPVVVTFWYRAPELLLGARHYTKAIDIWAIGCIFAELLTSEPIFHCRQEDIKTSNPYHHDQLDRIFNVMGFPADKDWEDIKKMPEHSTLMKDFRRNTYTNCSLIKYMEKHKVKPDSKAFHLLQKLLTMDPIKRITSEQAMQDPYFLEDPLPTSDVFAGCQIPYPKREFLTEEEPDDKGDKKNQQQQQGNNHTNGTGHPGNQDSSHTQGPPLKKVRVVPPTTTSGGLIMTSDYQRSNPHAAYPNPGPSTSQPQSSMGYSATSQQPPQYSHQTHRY

[14] = molecular target: CAMK2G (Homo sapiens, UniProt Q13555)
[15] = molecular target: IKK-beta (Homo sapiens, UniProt O14920)
[16] = molecular target: KIT(D816V) (Homo sapiens, UniProt P10721, D816V)
Sequence of KIT(D816V) (P10721 whole entry D816V): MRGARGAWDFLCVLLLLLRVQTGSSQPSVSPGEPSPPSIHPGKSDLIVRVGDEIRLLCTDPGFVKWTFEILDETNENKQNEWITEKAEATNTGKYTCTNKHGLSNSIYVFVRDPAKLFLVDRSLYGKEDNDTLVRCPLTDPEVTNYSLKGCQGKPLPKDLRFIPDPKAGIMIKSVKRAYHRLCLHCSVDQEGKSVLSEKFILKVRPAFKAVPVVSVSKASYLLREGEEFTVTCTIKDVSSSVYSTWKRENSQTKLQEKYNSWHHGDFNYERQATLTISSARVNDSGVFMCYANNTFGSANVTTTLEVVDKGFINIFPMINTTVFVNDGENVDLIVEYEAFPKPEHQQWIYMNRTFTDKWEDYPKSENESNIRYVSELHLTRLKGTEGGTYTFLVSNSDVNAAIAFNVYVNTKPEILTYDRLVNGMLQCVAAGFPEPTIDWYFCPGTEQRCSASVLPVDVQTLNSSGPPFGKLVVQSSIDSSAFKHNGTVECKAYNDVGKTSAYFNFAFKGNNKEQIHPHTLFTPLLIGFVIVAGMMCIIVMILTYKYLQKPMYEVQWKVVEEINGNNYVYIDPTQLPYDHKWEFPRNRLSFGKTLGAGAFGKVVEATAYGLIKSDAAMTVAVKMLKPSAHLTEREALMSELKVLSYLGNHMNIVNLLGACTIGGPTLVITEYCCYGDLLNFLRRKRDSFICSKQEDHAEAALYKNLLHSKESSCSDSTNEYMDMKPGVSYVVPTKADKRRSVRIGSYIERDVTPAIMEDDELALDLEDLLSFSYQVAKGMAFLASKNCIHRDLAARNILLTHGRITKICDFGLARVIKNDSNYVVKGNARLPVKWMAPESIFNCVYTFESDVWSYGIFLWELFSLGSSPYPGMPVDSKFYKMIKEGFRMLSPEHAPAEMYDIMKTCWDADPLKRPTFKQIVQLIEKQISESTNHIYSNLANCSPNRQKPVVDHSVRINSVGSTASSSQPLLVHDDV

[17] = molecular target: CDC2L5 (Homo sapiens, UniProt Q14004)
[18] = molecular target: MST1 (Homo sapiens, UniProt Q13043)
Sequence of MST1 (Q13043 whole entry): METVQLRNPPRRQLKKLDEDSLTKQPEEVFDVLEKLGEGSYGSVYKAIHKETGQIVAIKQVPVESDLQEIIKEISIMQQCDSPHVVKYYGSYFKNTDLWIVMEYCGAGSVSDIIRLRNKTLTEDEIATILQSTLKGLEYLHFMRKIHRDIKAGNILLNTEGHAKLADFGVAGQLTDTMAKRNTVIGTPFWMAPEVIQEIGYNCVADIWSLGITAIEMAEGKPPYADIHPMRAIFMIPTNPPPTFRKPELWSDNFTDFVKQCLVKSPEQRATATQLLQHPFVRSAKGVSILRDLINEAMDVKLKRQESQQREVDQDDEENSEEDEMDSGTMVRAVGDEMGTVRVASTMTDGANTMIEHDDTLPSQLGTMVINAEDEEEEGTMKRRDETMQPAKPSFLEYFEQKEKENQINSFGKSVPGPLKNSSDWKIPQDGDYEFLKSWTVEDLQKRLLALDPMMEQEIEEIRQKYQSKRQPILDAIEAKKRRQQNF

[19] = molecular target: FLT3(N841I) (Homo sapiens, UniProt P36888, N841I)
[20] = molecular target: MAP3K4 (Homo sapiens, UniProt Q9Y6R4)
Sequence of MAP3K4 (Q9Y6R4 whole entry): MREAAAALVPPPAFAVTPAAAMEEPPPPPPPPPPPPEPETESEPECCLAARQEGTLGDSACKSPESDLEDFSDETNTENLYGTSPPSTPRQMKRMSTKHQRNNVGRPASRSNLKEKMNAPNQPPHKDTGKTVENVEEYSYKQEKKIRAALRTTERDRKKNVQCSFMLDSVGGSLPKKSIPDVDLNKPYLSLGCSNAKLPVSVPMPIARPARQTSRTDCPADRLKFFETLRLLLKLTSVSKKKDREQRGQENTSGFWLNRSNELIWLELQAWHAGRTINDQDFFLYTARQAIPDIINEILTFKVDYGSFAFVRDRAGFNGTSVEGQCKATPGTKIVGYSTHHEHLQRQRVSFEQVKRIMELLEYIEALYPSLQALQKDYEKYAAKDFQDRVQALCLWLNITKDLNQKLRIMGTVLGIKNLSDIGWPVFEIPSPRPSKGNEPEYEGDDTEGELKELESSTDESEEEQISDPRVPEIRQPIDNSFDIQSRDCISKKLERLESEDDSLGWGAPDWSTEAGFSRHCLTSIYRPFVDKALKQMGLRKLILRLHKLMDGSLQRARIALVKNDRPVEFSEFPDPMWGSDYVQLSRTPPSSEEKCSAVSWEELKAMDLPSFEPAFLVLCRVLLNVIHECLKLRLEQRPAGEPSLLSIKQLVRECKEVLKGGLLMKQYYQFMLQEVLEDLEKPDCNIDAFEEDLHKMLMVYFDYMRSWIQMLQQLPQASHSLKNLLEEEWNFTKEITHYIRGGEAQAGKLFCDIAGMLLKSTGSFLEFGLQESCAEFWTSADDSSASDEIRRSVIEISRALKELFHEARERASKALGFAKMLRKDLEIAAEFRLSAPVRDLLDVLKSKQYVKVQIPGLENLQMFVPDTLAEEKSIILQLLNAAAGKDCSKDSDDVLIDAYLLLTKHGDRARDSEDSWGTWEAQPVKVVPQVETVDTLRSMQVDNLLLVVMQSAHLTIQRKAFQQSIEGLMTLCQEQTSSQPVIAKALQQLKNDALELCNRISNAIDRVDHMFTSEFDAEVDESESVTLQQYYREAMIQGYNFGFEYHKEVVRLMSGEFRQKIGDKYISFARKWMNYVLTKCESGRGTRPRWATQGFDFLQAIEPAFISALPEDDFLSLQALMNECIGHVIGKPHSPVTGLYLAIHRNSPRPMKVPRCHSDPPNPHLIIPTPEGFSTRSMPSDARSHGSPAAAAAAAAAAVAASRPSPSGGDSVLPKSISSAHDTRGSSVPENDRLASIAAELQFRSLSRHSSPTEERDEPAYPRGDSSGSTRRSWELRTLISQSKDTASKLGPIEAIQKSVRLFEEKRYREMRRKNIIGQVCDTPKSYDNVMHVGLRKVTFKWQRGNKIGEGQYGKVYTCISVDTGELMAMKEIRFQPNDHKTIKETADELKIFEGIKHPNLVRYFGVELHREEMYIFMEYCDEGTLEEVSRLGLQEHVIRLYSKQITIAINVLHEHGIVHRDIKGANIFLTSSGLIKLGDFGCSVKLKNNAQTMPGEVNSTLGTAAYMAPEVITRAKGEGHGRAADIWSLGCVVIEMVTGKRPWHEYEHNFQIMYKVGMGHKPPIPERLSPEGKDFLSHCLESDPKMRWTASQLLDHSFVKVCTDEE

[21] = molecular target: MRCKB (Homo sapiens, UniProt Q9Y5S2)
[22] = molecular target: BLK (Homo sapiens, UniProt P51451)
[23] = molecular target: KIT(A829P) (Homo sapiens, UniProt P10721, A829P)
Sequence of KIT(A829P) (P10721 whole entry A829P): as the sequence (P10721 whole entry D816V) above, with V816D, A829P counted along it

[24] = molecular target: MAP3K1 (Homo sapiens, UniProt Q13233)
[25] = molecular target: CSNK1E (Homo sapiens, UniProt P49674)
[26] = molecular target: CAMKK1 (Homo sapiens, UniProt Q8N5S9)
[27] = molecular target: AKT2 (Homo sapiens, UniProt P31751)
[28] = molecular target: BMPR1B (Homo sapiens, UniProt O00238)
[29] = molecular target: MEK3 (Homo sapiens, UniProt P46734)
[30] = read-out: HYJ-2-002-1 (1uM) % control
[31] = read-out: HYJ-2-002-1 (1μM) % control
[32] = read-out: CPT-1-70-1 (1uM) % control
[33] = read-out: CPT-1-70-1 (1μM) % control

CCN1CCN(Cc2ccc(NC(=O)c3ccc(C)c(CCc4cnc5[nH]ccc5c4OC)c3)cc2C(F)(F)F)CC1 [HYJ-2-002-1]
remaining activity at 1 µM [1, 30]: 2.4%
remaining activity at 1 µM [2, 31]: 66%
remaining activity at 1 µM [3, 31]: 21%
remaining activity at 1 µM [4, 30]: 0.7%
remaining activity at 1 µM [5, 30]: 96%
remaining activity at 1 µM [6, 30]: 0.8%
remaining activity at 1 µM [7, 30]: 7%
remaining activity at 1 µM [8, 30]: 3.2%
remaining activity at 1 µM [9, 30]: 62%
remaining activity at 1 µM [10, 30]: 100%
remaining activity at 1 µM [11, 30]: 29%
remaining activity at 1 µM [12, 30]: 7.3%
remaining activity at 1 µM [13, 30]: 9.2%
remaining activity at 1 µM [14, 30]: 100%
remaining activity at 1 µM [15, 30]: 0.3%
remaining activity at 1 µM [16, 30]: 9.2%
remaining activity at 1 µM [17, 30]: 100%
remaining activity at 1 µM [18, 30]: 89%
remaining activity at 1 µM [19, 30]: 1.5%
remaining activity at 1 µM [20, 30]: 100%
remaining activity at 1 µM [21, 30]: 100%
remaining activity at 1 µM [22, 30]: 0.1%
remaining activity at 1 µM [23, 30]: 61%
remaining activity at 1 µM [24, 30]: 83%
remaining activity at 1 µM [25, 30]: 75%
remaining activity at 1 µM [26, 30]: 100%
remaining activity at 1 µM [27, 30]: 95%
remaining activity at 1 µM [28, 30]: 100%
remaining activity at 1 µM [29, 30]: 100%

CN1CCN(c2ccc(Nc3nc(Oc4ccc(NC(=O)CCl)cc4)c4cc[nH]c4n3)cc2)CC1 [CPT1-70-1]
remaining activity at 1 µM [1, 32]: 0%
remaining activity at 1 µM [2, 33]: 10%
remaining activity at 1 µM [3, 33]: 100%
remaining activity at 1 µM [4, 32]: 100%
remaining activity at 1 µM [5, 32]: 100%
remaining activity at 1 µM [6, 32]: 93%
remaining activity at 1 µM [7, 32]: 100%
remaining activity at 1 µM [8, 32]: 22%
remaining activity at 1 µM [9, 32]: 53%
remaining activity at 1 µM [10, 32]: 69%
remaining activity at 1 µM [11, 32]: 34%
remaining activity at 1 µM [12, 32]: 10%
remaining activity at 1 µM [13, 32]: 100%
remaining activity at 1 µM [14, 32]: 100%
remaining activity at 1 µM [15, 32]: 100%
remaining activity at 1 µM [16, 32]: 60%
remaining activity at 1 µM [17, 32]: 91%
remaining activity at 1 µM [18, 32]: 100%
remaining activity at 1 µM [19, 32]: 1.2%
remaining activity at 1 µM [20, 32]: 66%
remaining activity at 1 µM [21, 32]: 100%
remaining activity at 1 µM [22, 32]: 1.6%
remaining activity at 1 µM [23, 32]: 75%
remaining activity at 1 µM [24, 32]: 100%
remaining activity at 1 µM [25, 32]: 18%
remaining activity at 1 µM [26, 32]: 84%
remaining activity at 1 µM [27, 32]: 100%
remaining activity at 1 µM [28, 32]: 100%
remaining activity at 1 µM [29, 32]: 26%
